# From patent publication US20250101487A1, “SELF-DILUTING MICROFLUIDIC DEVICE FOR RAPID ANTIMICROBIAL SUSCEPTIBILITY TESTS” (The University of Hong Kong, priority 2023, published 2025)
# Like-named read-outs stand apart in the source and are kept apart here.
# Assays:
# K. pneumoniae [1] = experiment: SDFAST antimicrobial susceptibility test (WST-8 colorimetric); format: cell-based; conditions: Klebsiella pneumoniae, WST-8, 37° C., 6 hours
# Experimental: (§1) SDFAST (Self Dilution for Faster Antimicrobial Susceptibility Testing) involved a relatively simple mechanism with three phases: loading, droplet formation, and mixing (FIG. 3A). In the loading phase, a bacteria sample with a colorimetric indicator (CCK-8, cell counting kit-8) was injected into the constant-volume channels, while the antibiotic solution is injected into the varied-volume channels. In the droplet formation phase, the upper chip was slipped, forming droplets. In the mixing phase, the bacteria sample was mixed with the antibiotic solution. […] The well before the abrupt color change represented the minimum inhibitory concentration (MIC) of the bacteria with the antibiotic.
# (§2) The solutions were injected using a micropipette with 0.1-20 μL tips. For lines with constant volume, 20 μL solution was required to fill up one entire line, while for lines with varied volumes, 10 μL solution was required. The excess solution was expelled from the hole adjacent to the end side of each line and could be wiped with KimWipes. After filling the wells, the chips were slid so that the lower line aligned and overlapped with the upper line, allowing the solutions to mix. Subsequently, the chips were placed inside a Petri dish containing FC-40, and the dish was sealed with parafilm. The dish was then incubated at 37° C. for 6 hours before color analysis using ImageJ.
# The bacteria were cultured on an agar plate and incubated in Mueller-Hinton Broth (MHB, Sigma-Aldrich) at 37° C. overnight. The culture solution was then diluted 1000 times with MHB and mixed with 5% WST-8 indicator (Beyotime). […]
# (§3) In the present invention, the SDFAST was operated with the water-soluble tetrazolium salt-8 (WST-8) assay, in which four prevalent bacteria, Acinetobacter baumannii (A. baumannii), Escherichia coli (E. coli), Klebsiella pneumoniae (K. pneumoniae) and clinical samples containing Staphylococcus species were tested under various antibiotics. […] After the identification, the MIC value was calculated based on dilution rates.
# A. baumannii [2] = experiment: as above; format: cell-based; conditions: Acinetobacter baumannii, WST-8, 37° C., 6 hours
# Experimental: as §1, §2
# (§4) The bacteria were cultured on an agar plate and incubated in Mueller-Hinton Broth (MHB, Sigma-Aldrich) at 37° C. overnight. The culture solution was then diluted 1000 times with MHB and mixed with 5% WST-8 indicator (Beyotime). The antibiotic solutions were prepared by dissolving the desired amount of antibiotics (solid or liquid) into DI water, and the solutions were diluted by DI water according to the desired concentrations to be tested.
# as §3, with “The colourless or very pale yellow well before” for “After”, “abrupt change in each line represented” for “identification,”, “corresponding MIC, which could be easily identified by the naked eyes.” for “MIC value was calculated based on dilution rates.”
# E. coli [3] = experiment: as above; format: cell-based; conditions: Escherichia coli, WST-8, 37° C., 6 hours
# Experimental: as §1, §2, §4
# as §3, with “The colourless or very pale yellow well before” for “After”, “abrupt change in each line represented” for “identification,”, “corresponding MIC, which could be easily identified by the naked eyes.” for “MIC value was calculated based on dilution rates.”
# A. baumannii [4] = experiment: Broth microdilution; format: cell-based; conditions: Acinetobacter baumannii
# Experimental: (§5) Currently, AST is mostly commonly conducted by the broth microdilution method^3,4, in which the antibiotic solution of the desired concentration is prepared, injected into a microwell, and diluted serially from well to well. Afterward, an equal volume of bacteria solution is introduced to every microwell with antibiotics of varied concentrations, and the well-plate is incubated overnight. In the end, MIC is determined by observing and analyzing the turbidity of each well, and the well with the lowest concentration of antibiotic showing no turbidity represents the MIC^5. […] Another common yet less complex method is disc diffusion^7. In this technique, bacteria are initially cultured on Mueller-Hinton agar. Subsequently, antimicrobial discs are positioned on the agar plate, and the plate is left to incubate overnight. The diameters of inhibition zones, the regions where bacteria are being killed, are then measured, and these values are compared to reference standards to ascertain susceptibility. This method is used for qualitative determination of bacterial susceptibility, in which the bacteria are determined to be “resistant”, “intermediate,” or “susceptible” from the results. Despite its widespread use, this method has several drawbacks. […] Additionally, it is time-consuming, requiring 16 to 24 hours to produce results, and must be conducted in a laboratory^8,9. Consequently, an alternative approach that is portable, user-friendly, and time-efficient needs to be developed for rapid MIC determination.
# E. coli [5] = experiment: Broth microdilution; format: cell-based; conditions: Escherichia coli
# Experimental: as §5
# K. pneumoniae [6] = experiment: Broth microdilution; format: cell-based; conditions: Klebsiella pneumoniae
# Experimental: as §5
# S. aureus [7] = experiment: SDFAST antimicrobial susceptibility test (WST-8), clinical Staphylococcus strains; format: cell-based
# Experimental: as §1, §2
# (§6) They were obtained from the Department of Microbiology, Queen Mary Hospital, Hong Kong (Patient samples). Vancomycin hydrochloride solution (100 mg/mL in DMSO, Sigma-Aldrich) was diluted with DI water to desired concentrations for each strain. The results were compared to those obtained by E-test from the Department of Microbiology.
# S. capitis [8] = experiment: as above; format: cell-based
# Experimental: as §1, §2, §6
# S. caprae [9] = experiment: as above; format: cell-based
# Experimental: as §1, §2, §6
# S. haemolyticus [10] = experiment: as above; format: cell-based; conditions: S. haemolyticus 901622-2
# Experimental: as §1, §2, §6
# S. aureus [11] = conditions: cited from earlier work
# S. haemolyticus [12] = conditions: S. haemolyticus 901622-2; cited from earlier work
# S. capitis [13] = conditions: cited from earlier work
# S. caprae [14] = conditions: cited from earlier work
compound,measurement,setting,value
"O=C(O)c1cn(C2CC2)c2cc(N3CCNCC3)c(F)cc2c1=O [CIP, Ciprofloxacin]",MIC,K. pneumoniae [1],6.25 µg/mL
"CC(C)(O/N=C(\C(=O)N[C@@H]1C(=O)N2C(C(=O)[O-])=C(C[n+]3ccccc3)CS[C@H]12)c1csc(N)n1)C(=O)O [CTZ, Ceftazidime]",MIC,A. baumannii [2],62.5 µg/mL
same,MIC,E. coli [3],62.5 µg/mL
same,MIC,A. baumannii [4],62.5 to 125 µg/mL
same,MIC,E. coli [5],62.5 µg/mL
same,MIC,K. pneumoniae [6],125 µg/mL
same,MIC,K. pneumoniae [1],62.5 µg/mL
"C[C@H]1COc2c(N3CCN(C)CC3)c(F)cc3c(=O)c(C(=O)O)cn1c23 [LEV, Levofloxacin]",MIC,A. baumannii [2],100 µg/mL
same,MIC,E. coli [3],12.5 µg/mL
same,MIC,A. baumannii [4],100 µg/mL
same,MIC,E. coli [5],12.5 µg/mL
same,MIC,K. pneumoniae [6],50 µg/mL
same,MIC,K. pneumoniae [1],50 µg/mL
CN[C@H](CC(C)C)C(=O)N[C@H]1C(=O)N[C@@H](CC(N)=O)C(=O)N[C@H]2C(=O)N[C@H]3C(=O)N[C@H](C(=O)N[C@H](C(=O)O)c4cc(O)cc(O)c4-c4cc3ccc4O)[C@H](O)c3ccc(c(Cl)c3)Oc3cc2cc(c3O[C@@H]2O[C@H](CO)[C@@H](O)[C@H](O)[C@H]2O[C@H]2C[C@](C)(N)[C@H](O)[C@H](C)O2)Oc2ccc(cc2Cl)[C@H]1O [Vancomycin],MIC,S. aureus [7]; S. aureus 900967,1 µg/mL
same,MIC,S. aureus [7]; S. aureus 901089,1 µg/mL
same,MIC,S. aureus [7]; S. aureus 901763,0.5 µg/mL
same,MIC,S. aureus [7]; S. aureus 902126,0.77 to 1.4 µg/mL
same,MIC,S. aureus [7]; S. aureus 902154,0.94 µg/mL
same,MIC,S. aureus [7]; S. aureus 902395,0.5 µg/mL
same,MIC,S. aureus [7]; S. aureus 903245,1.4 µg/mL
same,MIC,S. aureus [7]; S. aureus 932674,0.77 to 1.4 µg/mL
same,MIC,S. capitis [8]; S. capitis 901820-1,1 µg/mL
same,MIC,S. capitis [8]; S. capitis 902278-2,1 µg/mL
same,MIC,S. capitis [8]; S. capitis 902530-2,0.55 µg/mL
same,MIC,S. caprae [9]; S. caprae 901820-2,1.56 µg/mL
same,MIC,S. caprae [9]; S. caprae 902278-1,0.195 µg/mL
same,MIC,S. caprae [9]; S. caprae 903211,0.5 µg/mL
same,MIC,S. caprae [9]; S. caprae 903522,1.11 µg/mL
same,MIC,S. haemolyticus [10],1.56 µg/mL
same,"MIC, E-test (reference value)",S. aureus [11]; S. aureus 900967,1 µg/mL
same,"MIC, E-test (reference value)",S. aureus [11]; S. aureus 901089,1 µg/mL
same,"MIC, E-test (reference value)",S. aureus [11]; S. aureus 901763,0.5 µg/mL
same,"MIC, E-test (reference value)",S. aureus [11]; S. aureus 902126,0.75 µg/mL
same,"MIC, E-test (reference value)",S. aureus [11]; S. aureus 902154,0.5 µg/mL
same,"MIC, E-test (reference value)",S. aureus [11]; S. aureus 902395,0.5 µg/mL
same,"MIC, E-test (reference value)",S. aureus [11]; S. aureus 903245,0.75 µg/mL
same,"MIC, E-test (reference value)",S. aureus [11]; S. aureus 932674,0.75 µg/mL
same,"MIC, E-test (reference value)",S. haemolyticus [12],1.5 µg/mL
same,"MIC, E-test (reference value)",S. capitis [13]; S. capitis 901820-1,1 µg/mL
same,"MIC, E-test (reference value)",S. capitis [13]; S. capitis 902278-2,1 µg/mL
same,"MIC, E-test (reference value)",S. capitis [13]; S. capitis 902530-2,0.5 µg/mL
same,"MIC, E-test (reference value)",S. caprae [14]; S. caprae 901820-2,1.5 µg/mL
same,"MIC, E-test (reference value)",S. caprae [14]; S. caprae 902278-1,0.19 µg/mL
same,"MIC, E-test (reference value)",S. caprae [14]; S. caprae 903211,0.5 µg/mL
same,"MIC, E-test (reference value)",S. caprae [14]; S. caprae 903522,1 µg/mL
